Assay results from patent US12583866B2, “Pyrido[2,3-b][1,4]oxazines or tetrahydropyrido[2,3-b][1,4]oxazepines as IAP antagonists” (BEIGENE, LTD., priority 2020, dated 2026).

How the values were obtained:
[1] = target: T1, recombinant human cIAP1-BIR3 protein (Homo sapiens, UniProt Q13490); assay: Recombinant human c-IAP1-BIR3 biochemical assay (HTRF, peptide displacement); conditions: 1.2 nM cIAP1-BIR3, 3 nM AbuRPF-K(5-Fam)-NH2 peptide, read-out: Protein binding IC50 (nM) c-IAP1
T1 construct: recombinant human cIAP1-BIR3 protein; purchased Reaction biology APT-11-370
Outline: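 1.2 nM cIAP1-BIR3 preincubated 1 h at room temperature with compound (10 points, 4-fold, top 10 uM) in 20 mM HEPES pH 7.5, 50 mM NaCl, 1 mM DTT; 3 nM AbuRPF-K(5-Fam)-NH2 then added for 1 h, then anti-6His Tb cryptate for 1 h. 520/490 nm ratio; IC50 by four-parameter logistic fit.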

[2] = target: T2, recombinant human cIAP2-BIR3 protein (Homo sapiens, UniProt Q13489); assay: Recombinant human c-IAP2-BIR3 biochemical assay (HTRF, peptide displacement); conditions: 3.7 nM cIAP2-BIR3, 3.7 nM AbuRPF-K(5-Fam)-NH2 peptide, read-out: Protein binding IC50 (nM) c-IAP2
T2 construct: recombinant human cIAP2-BIR3 protein; purchased Reaction biology APT-11-372
Outline: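 3.7 nM protein pre-incubated 1 h at room temperature with compounds (top 10 uM, 4-fold, 10 points) in 20 mM HEPES pH 7.5, 50 mM NaCl, 0.005% Tween-20, 1 mM DTT. Then 3.7 nM AbuRPF-K(5-Fam)-NH2 for 1 h, then anti-6His Tb cryptate 1 h. IC50 from 520/490 nm HTRF ratio, four-parameter logistic fit.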

[3] = target: T3, recombinant human XIAP-BIR3 protein (Homo sapiens, UniProt P98170); assay: Recombinant human XIAP-BIR3 biochemical assay (HTRF, peptide displacement); conditions: 3.7 nM XIAP-BIR3, 7.6 nM AbuRPF-K(5-Fam)-NH2 peptide, read-out: Protein binding IC50 (nM) XIAP
T3 construct: recombinant human XIAP-BIR3 protein; purchased Reaction biology APT-11-374
Outline: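 3.7 nM His-tagged XIAP-BIR3 was preincubated 1 h RT with compound (top 10 µM, 4-fold, 10 points) in 20 mM HEPES pH 7.5, 50 mM NaCl, 0.005% Tween-20, 1 mM DTT. 7.6 nM AbuRPF-K(5-Fam)-NH2 peptide was then added, followed by anti-6His Tb cryptate, 1 h each. HTRF 520/490 nm ratio; four-parameter logistic IC50.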

T3 sequence (P98170 241-356 limits assumed): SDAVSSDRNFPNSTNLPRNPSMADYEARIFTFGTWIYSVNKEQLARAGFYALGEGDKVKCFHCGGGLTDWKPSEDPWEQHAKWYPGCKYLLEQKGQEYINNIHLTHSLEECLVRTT
T1 sequence (Q13490 253-363 limits assumed): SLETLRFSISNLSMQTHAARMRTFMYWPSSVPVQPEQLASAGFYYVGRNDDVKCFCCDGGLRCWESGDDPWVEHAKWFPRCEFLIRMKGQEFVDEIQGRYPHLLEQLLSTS
T2 sequence (Q13489 238-349 limits assumed): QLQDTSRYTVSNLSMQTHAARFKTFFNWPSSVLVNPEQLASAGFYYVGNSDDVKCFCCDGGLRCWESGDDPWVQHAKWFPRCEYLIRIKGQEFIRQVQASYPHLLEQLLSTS

Compound: COC[C@H]1COc2ncc(Cc3ccc(F)cc3)cc2N1C(=O)CN1C[C@@H](C)NC[C@@H]1CN1CCOC[C@H]1C [Compound 35, 1-((S)-7-(4-fluorobenzyl)-2-(methoxymethyl)-2,3-dihydro-1H-pyrido[2,3-b][1,4]oxazin-1-yl)-2-((2R,5R)-5-methyl-2-(((R)-3-methylmorpholino)methyl)piperazin-1-yl)ethan-1-one]
- IC50 [1]: 0.33 nM
- IC50 [2]: 0.99 nM
- IC50 [3]: 46 nM

Compound: C[C@@H]1CN(CC(=O)N2CCOc3nc(O)c(Cc4ccc(F)cc4)cc32)[C@@H](CN2CCOC[C@H]2C)CN1 [Compound 9, 1-(7-(4-fluorobenzyl)-6-hydroxy-2,3-dihydro-1H-pyrido[2,3-b][1,4]oxazin-1-yl)-2-((2R,5R)-5-methyl-2-(((R)-3-methylmorpholino)methyl)piperazin-1-yl)ethan-1-one]
- IC50 [1]: 0.85 nM
- IC50 [2]: 1.3 nM
- IC50 [3]: 10 nM

Compound: C[C@@H]1CN(CC(=O)N2CCOc3nc(CO)c(Cc4ccc(F)cc4)cc32)[C@@H](CN2CCOC[C@H]2C)CN1 [Compound 8, 1-(7-(4-fluorobenzyl)-6-(hydroxymethyl)-2,3-dihydro-1H-pyrido[2,3-b][1,4]oxazin-1-yl)-2-((2R,5R)-5-methyl-2-(((R)-3-methylmorpholino)methyl)piperazin-1-yl)ethan-1-one]
- IC50 [1]: 1 nM
- IC50 [2]: 2.9 nM
- IC50 [3]: 45 nM

Compound: COCCNc1nc2c(cc1Cc1ccc(F)cc1)N(C(=O)CN1C[C@@H](C)NC[C@@H]1CN1[C@H](C)COC[C@H]1C)[C@@H](C)CO2 [Compound 108]
- IC50 [1]: 0.16 nM
- IC50 [2]: 0.57 nM
- IC50 [3]: 7.7 nM

Compound: C[C@@H]1CN(CC(=O)N2c3cc(Cc4ccc(F)cc4)c(C(=O)NCC(F)(F)F)nc3OC[C@@H]2C)[C@@H](CN2[C@H](C)COC[C@H]2C)CN1 [Example 64]
- IC50 [1]: 0.25 nM
- IC50 [2]: 0.29 nM
- IC50 [3]: 2.3 nM

Compound: C[C@@H]1CN(CC(=O)N2c3cc(Cc4ccc(F)cc4)cnc3OC[C@@H]2COc2ccccc2)[C@@H](CN2[C@H](C)COC[C@H]2C)CN1 [Compound 40, 2-((2R,5R)-2-(((3R,5R)-3,5-dimethylmorpholino)methyl)-5-methylpiperazin-1-yl)-1-((S)-7-(4-fluorobenzyl)-2-(phenoxymethyl)-2,3-dihydro-1H-pyrido[2,3-b][1,4]oxazin-1-yl)ethan-1-one]
- IC50 [1]: 0.09 nM
- IC50 [2]: 0.14 nM
- IC50 [3]: 8.2 nM

Compound: C[C@@H]1CN(CC(=O)N2c3cc(Cc4ccc(F)cc4)c(C(=O)NC4CC4)nc3OC[C@@H]2C)[C@@H](CN2[C@H](C)COC[C@H]2C)CN1 [Example 63]
- IC50 [1]: 0.17 nM
- IC50 [2]: 0.23 nM
- IC50 [3]: 3.2 nM

Compound: C[C@@H]1CN(CC(=O)N2c3cc(Cc4ccc(F)cc4)c(CO)nc3OC[C@@H]2C)[C@@H](CN2C3CCC2COC3)CN1 [Compound 86]
- IC50 [1]: 0.89 nM
- IC50 [2]: 0.95 nM
- IC50 [3]: 15 nM

Compound: C[C@@H]1CN(CC(=O)N2c3cc(Cc4ccc(F)cc4)c(CO)nc3OC[C@@H]2C)[C@@H](CN2CCOC[C@H]2C2CC2)CN1 [Example 84A, 2-((2R,5R)-2-(((R)-3-cyclopropylmorpholino)methyl)-5-methylpiperazin-1-yl)-1-((S)-7-(4-fluorobenzyl)-6-(hydroxymethyl)-2-methyl-2,3-dihydro-1H-pyrido[2,3-b][1,4]oxazin-1-yl)ethan-1-one]
- IC50 [1]: 0.29 nM
- IC50 [2]: 0.44 nM
- IC50 [3]: 6.4 nM

Compound: CC[C@@H]1COCCN1C[C@H]1CN[C@H](C)CN1CC(=O)N1c2cc(Cc3ccc(F)cc3)c(CO)nc2OC[C@@H]1C [Compound 51, 2-((2R,5R)-2-(((R)-3-ethylmorpholino)methyl)-5-methylpiperazin-1-yl)-1-((S)-7-(4-fluorobenzyl)-6-(hydroxymethyl)-2-methyl-2,3-dihydro-1H-pyrido[2,3-b][1,4]oxazin-1-yl)ethan-1-one]
- IC50 [1]: 0.3 nM
- IC50 [2]: 0.67 nM
- IC50 [3]: 9.2 nM

Compound: C[C@@H]1CN(CC(=O)N2c3cc(Cc4ccc(F)cc4)c(C(=O)NCC4CCN(C)CC4)nc3OC[C@@H]2C)[C@@H](CN2[C@H](C)COC[C@H]2C)CN1 [Compound 98, (S)-1-(2-((2R,5R)-2-(((3R,5R)-3,5-dimethylmorpholino)methyl)-5-methylpiperazin-1-yl)acetyl)-7-(4-fluorobenzyl)-2-methyl-N-((1-methylpiperidin-4-yl)methyl)-2,3-dihydro-1H-pyrido[2,3-b][1,4]oxazine-6-carb oxamide]
- IC50 [1]: 0.13 nM
- IC50 [2]: 0.29 nM
- IC50 [3]: 8.2 nM

Compound: C[C@@H]1CN(CC(=O)N2c3cc(Cc4ccc(F)cc4)c(CN4CC(O)C4)nc3OC[C@@H]2C)[C@@H](CN2[C@H](C)COC[C@H]2C)CN1 [Compound 114]
- IC50 [1]: 0.19 nM
- IC50 [2]: 0.36 nM
- IC50 [3]: 7.7 nM

Compound: C[C@@H]1CN(CC(=O)N2c3cc(Cc4ccc(F)cc4)c(C(N)=O)nc3OC[C@@H]2C)[C@@H](CN2CCOCC23CC3)CN1 [Compound 88, (S)-1-(2-((2R,5R)-2-((7-oxa-4-azaspiro[2.5]octan-4-yl)methyl)-5-methylpiperazin-1-yl)acetyl)-7-(4-fluorobenzyl)-2-methyl-2,3-dihydro-1H-pyrido[2,3-b][1,4]oxazine-6-carboxamide]
- IC50 [1]: 0.35 nM
- IC50 [2]: 0.63 nM
- IC50 [3]: 12.4 nM

Compound: C[C@@H]1CN(CC(=O)N2c3cc(Cc4ccc(F)cc4)c(C(=O)N4CC[C@@H](F)C4)nc3OC[C@@H]2C)[C@@H](CN2[C@H](C)COC[C@H]2C)CN1 [Compound 101, 2-((2R,5R)-2-(((3R,5R)-3,5-dimethylmorpholino)methyl)-5-methylpiperazin-1-yl)-1-((S)-7-(4-fluorobenzyl)-6-((R)-3-fluoropyrrolidine-1-carbonyl)-2-methyl-2,3-dihydro-1H-pyrido[2,3-b][1,4]oxazin-1-yl)ethan-1-one]
- IC50 [1]: 0.19 nM
- IC50 [2]: 0.37 nM
- IC50 [3]: 2.5 nM

Compound: C[C@@H]1CN(CC(=O)N2c3cc(Cc4ccc(F)cc4)c(C(=O)NC4CCOCC4)nc3OC[C@@H]2C)[C@@H](CN2[C@H](C)COC[C@H]2C)CN1 [Example 76, (S)-1-(2-((2R,5R)-2-(((3R,5R)-3,5-dimethylmorpholino)methyl)-5-methylpiperazin-1-yl)acetyl)-7-(4-fluorobenzyl)-2-methyl-N-(tetrahydro-2H-pyran-4-yl)-2,3-dihydro-1H-pyrido[2,3-b][1,4]oxazine-6-carboxamide]
- IC50 [1]: 0.15 nM
- IC50 [2]: 0.28 nM
- IC50 [3]: 4.4 nM

Compound: C[C@@H]1CN(CC(=O)N2c3cc(Cc4ccc(F)cc4)c(C(=O)NC[C@H]4CCOC4)nc3OC[C@@H]2C)[C@@H](CN2[C@H](C)COC[C@H]2C)CN1 [Compound 96, (S)-1-(2-((2R,5R)-2-(((3R,5R)-3,5-dimethylmorpholino)methyl)-5-methylpiperazin-1-yl)acetyl)-7-(4-fluorobenzyl)-2-methyl-N—(((R)-tetrahydrofuran-3-yl)methyl)-2,3-dihydro-1H-pyrido[2,3-b][1,4]oxazine-6-carboxamide]
- IC50 [1]: 0.21 nM
- IC50 [2]: 0.23 nM
- IC50 [3]: 3.75 nM

Compound: COCCOc1nc2c(cc1Cc1ccc(F)cc1)N(C(=O)CN1C[C@@H](C)NC[C@@H]1CN1[C@H](C)COC[C@H]1C)[C@@H](C)CO2 [Compound 89, 2-((2R,5R)-2-(((3R,5R)-3,5-dimethylmorpholino)methyl)-5-methylpiperazin-1-yl)-1-((S)-7-(4-fluorobenzyl)-6-(2-methoxyethoxy)-2-methyl-2,3-dihydro-1H-pyrido[2,3-b][1,4]oxazin-1-yl)ethan-1-one]
- IC50 [1]: 0.17 nM
- IC50 [2]: 0.36 nM
- IC50 [3]: 3.1 nM

Compound: C[C@@H]1CN(CC(=O)N2c3cc(Cc4ccc(F)cc4)c(NS(=O)(=O)C4CC4)nc3OC[C@@H]2C)[C@@H](CN2[C@H](C)COC[C@H]2C)CN1 [Compound 123, N—((S)-1-(2-((2R,5R)-2-(((3R,5R)-3,5-dimethylmorpholino)methyl)-5-methylpiperazin-1-yl)acetyl)-7-(4-fluorobenzyl)-2-methyl-2,3-dihydro-1H-pyrido[2,3-b][1,4]oxazin-6-yl)cyclopropanesulfonamide]
- IC50 [1]: 0.2 nM
- IC50 [2]: 0.35 nM
- IC50 [3]: 4.4 nM

Compound: C[C@@H]1CN(CC(=O)N2c3cc(Cc4ccc(F)cc4F)c(C(N)=O)nc3OC[C@@H]2C)[C@@H](CN2[C@H](C)COC[C@H]2C)CN1 [Example 83, (S)-7-(2,4-difluorobenzyl)-1-(2-((2R,5R)-2-(((3R,5R)-3,5-dimethylmorpholino)methyl)-5-methylpiperazin-1-yl)acetyl)-2-methyl-2,3-dihydro-1H-pyrido[2,3-b][1,4]oxazine-6-carboxamide]
- IC50 [1]: 0.2 nM
- IC50 [2]: 0.4 nM
- IC50 [3]: 7.2 nM
